From ChEMBL document CHEMBL1201862, “PubChem BioAssay data set” (2004) come the findings set out here.

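Each compound was tested at five concentrations against cells in 96-well plates for 48 hours. Abbreviation: GI50, concentration required for 50% inhibition of growth.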 Calls of active or inactive are those of the source. Cut-off read from the data, not from the text of the source: active = GI50 up to about 1.1 µM and inactive = higher.

Some test systems named below: Malme-3M; HCT-15; ACHN; M14; SK-MEL-2; SN12C; EKVX; RPMI-8226; SR; CAKI-1; LOX IMVI; RXF 393; NCI-H23; HT-29; SF-295; TK-10; A498; A549; T47D; SK-OV-3.
Assay in all cases: NCI-60 cell line screen, 48 h

Regarding `Cn1c(CC(O)c2nc3ccccc3n2C)nc2ccccc21` (stereo not given), the GI50 was > 21.1 µM (inactive) in the test with Malme-3M; greater than 16 µM in the test on HCT-15; > 23.6 µM (inactive) with ACHN; > 29.2 µM (inactive) with M14; > 31.3 µM (inactive) in the test with SK-MEL-2; > 36 µM (inactive) in the test on SN12C. Moreover, the GI50 with EKVX is > 100 µM (inactive); with RPMI-8226, > 11.5 µM (inactive); in the test with SR, > 100 µM (inactive); with CAKI-1, > 100 µM (inactive); with LOX IMVI, > 28.8 µM (inactive); in the test with RXF 393, > 24.7 µM (inactive). The GI50 with NCI-H23 was > 17.6 µM (inactive); in the test on HT-29, > 32.8 µM (inactive); in the test with SF-295, > 100 µM (inactive); with TK-10, > 25.1 µM (inactive); in the test with A498, > 32.9 µM (inactive); in the test on A549, > 56.6 µM (inactive). Besides, the GI50 with T47D is > 8.57 µM (inactive); with SK-OV-3, > 30.4 µM (inactive).

For `CCOC(=O)/C=C(/C(=O)OCC)n1ccc(=O)n(/C(=C/C(=O)OCC)C(=O)OCC)c1=O`, the GI50 in the test with Malme-3M was 2.79 µM (inactive); in the test with HCT-15, 2.19 µM; in the test on ACHN, 3 µM (inactive); in the test with M14, 4.98 µM (inactive); in the test with SK-MEL-2, 12.7 µM (inactive); in the test on SN12C, 4.43 µM (inactive). Besides, the GI50 with EKVX is 11.4 µM (inactive); with RPMI-8226, 2.7 µM (inactive); in the test with SR, 5.28 µM (inactive); in the test on CAKI-1 it was 1.66 µM (inactive); in the test with LOX IMVI, 5.19 µM (inactive); with RXF 393, 3.68 µM (inactive). In addition, the GI50 in the test on NCI-H23 was 16 µM (inactive); in the test with HT-29, 7.74 µM (inactive); in the test with SF-295, 25.6 µM (inactive); in the test with TK-10, 7.08 µM (inactive); in the test on A498, 21.8 µM (inactive); with A549, 17.3 µM (inactive). The GI50 is 4.48 µM (inactive) with T47D and 23.6 µM (inactive) in the test on SK-OV-3.

On to `CC(=O)c1cc(S(=O)(=O)c2ccc(O)c(C(C)=O)c2)ccc1O`, for which the GI50 in the test with Malme-3M is > 100 µM (inactive); in the test on HCT-15, 95.9 µM; in the test on ACHN, 91 µM (inactive); in the test on M14 it was 67.9 µM (inactive); in the test with SK-MEL-2, 92 µM (inactive); in the test on SN12C, > 100 µM (inactive). The GI50 is > 100 µM (inactive) in the test on EKVX; 44.4 µM (inactive) with RPMI-8226; 33.4 µM (inactive) in the test on SR; > 100 µM (inactive) in the test with CAKI-1; 70.3 µM (inactive) with LOX IMVI; 71.4 µM (inactive) in the test with RXF 393. Also, the GI50 with NCI-H23 was 58.1 µM (inactive); in the test with HT-29 it was > 100 µM (inactive); with SF-295 it was 36.5 µM (inactive); in the test with TK-10, 52 µM (inactive); in the test on A498, 64.4 µM (inactive); with A549 it was 49.4 µM (inactive). In addition, the GI50 was 51.8 µM (inactive) in the test on T47D and 66.7 µM (inactive) with SK-OV-3.

As to `O=C(CN(c1ccc(S(=O)(=O)O)cc1)c1ccc(S(=O)(=O)O)cc1)Nn1cnc2ccc(S(=O)(=O)N(c3ccc(S(=O)(=O)O)cc3)c3ccc(S(=O)(=O)O)cc3)cc2c1=O`, the GI50 is > 100 µM (inactive) with Malme-3M; greater than 100 µM with HCT-15; > 100 µM (inactive) in the test with ACHN; > 100 µM (inactive) with M14; > 100 µM (inactive) in the test on SK-MEL-2; > 100 µM (inactive) in the test with SN12C. The GI50 with EKVX, in the test with RPMI-8226, in the test with SR, in the test with CAKI-1, with LOX IMVI and in the test on RXF 393 was > 100 µM (inactive) in each case. Further, the GI50 in the test on NCI-H23, in the test on HT-29, with SF-295, in the test with TK-10, with A498 and in the test with A549 was > 100 µM (inactive) in each case. In addition, the GI50 in the test on T47D and in the test on SK-OV-3 was > 100 µM (inactive) in each case.

As to `CC(=O)OCC1OC(n2c3c(c(-c4ccco4)c(C#N)c2=S)CCCC3)C(OC(C)=O)C(OC(C)=O)C1OC(C)=O` (stereo not given), the GI50 in the test on Malme-3M is > 31.6 µM (inactive); in the test with HCT-15 it was greater than 31.6 µM; with ACHN, 17.8 µM (inactive); in the test on M14, > 100 µM (inactive); in the test on SK-MEL-2, 17.9 µM (inactive); with SN12C, > 31.6 µM (inactive). Moreover, the GI50 is 16.6 µM (inactive) with EKVX; > 100 µM (inactive) in the test on RPMI-8226; > 31.6 µM (inactive) in the test with SR; 29.7 µM (inactive) in the test with CAKI-1; > 31.6 µM (inactive) with LOX IMVI; > 10 µM (inactive) in the test on RXF 393. In addition, the GI50 with NCI-H23 was > 20.2 µM (inactive); with HT-29, > 31.6 µM (inactive); with SF-295 it was 13.7 µM (inactive); with TK-10, 15.7 µM (inactive); in the test with A498, 12.1 µM (inactive); in the test with A549 it was 30 µM (inactive). Moreover, the figures for the GI50 with T47D and with SK-OV-3 were > 31.6 µM (inactive) and > 10 µM (inactive), respectively.

Regarding `CC1C2Cc3ccc(O)cc3C1(C)CCN2C` (stereo not given), the GI50 in the test with Malme-3M is > 100 µM (inactive); with HCT-15, greater than 100 µM; in the test on ACHN it was > 100 µM (inactive); in the test on M14 it was > 100 µM (inactive); in the test with SK-MEL-2, > 100 µM (inactive); in the test on SN12C, > 100 µM (inactive). The GI50 in the test with EKVX, with RPMI-8226, in the test with SR, with CAKI-1, in the test on LOX IMVI and in the test on RXF 393 was > 100 µM (inactive) throughout. Further, the GI50 in the test on NCI-H23, in the test on HT-29, in the test on SF-295, in the test with TK-10, in the test on A498 and in the test with A549 was > 100 µM (inactive) in each case. The GI50 in the test with T47D and with SK-OV-3 was > 100 µM (inactive) in each case.

As for `CC1(C)COC2=C(C1)C(=O)c1ccccc1C2=O`, the GI50 was 1.88 µM (inactive) with Malme-3M; 0.701 µM in the test with HCT-15; 1.55 µM (inactive) in the test on ACHN; 1.61 µM (inactive) in the test with M14; 1.91 µM (inactive) in the test with SK-MEL-2; 1.36 µM (inactive) in the test with SN12C. Also, the GI50 in the test on EKVX is 1.9 µM (inactive); in the test with RPMI-8226 it was 1.32 µM (inactive); in the test on SR it was 2.66 µM (inactive); with CAKI-1 it was 2.23 µM (inactive); in the test with LOX IMVI, 1.88 µM (inactive); in the test on RXF 393, 2.02 µM (inactive). The GI50 is 1.54 µM (inactive) with NCI-H23; 2.53 µM (inactive) with HT-29; 1.63 µM (inactive) in the test with SF-295; 1.7 µM (inactive) with TK-10; 2.1 µM (inactive) in the test on A498; 2.26 µM (inactive) with A549. Moreover, the GI50 is 0.558 µM (active) in the test on T47D and 1.88 µM (inactive) in the test on SK-OV-3.
